“Also recorded” adds a separate entry of the source.
Key:
[1] = system: other KV1.x family channels or more distantly related channels; set-up: method as in PMID 32199306; settings: cited from earlier work
Colo-357 tumor spheroids = assay: Apoptosis (caspase 3/7 activity) in Colo-357 tumor spheroids; type: cell-based; settings: with 8.9 µM cycloheximide, up to 100 µM
Procedure: (§1) Cell lines Panc-1 (ACC 783) and Colo-357 (CVCL_0221) were obtained through the validated collection of the pHioniC consortium (MSC-ITN 813834). Both cell lines were grown in RPMI1640, supplemented with 1 mM sodium pyruvate and 1% Glutamax (all Gibco Thermo-Fisher, Waltham, MA USA) 10%FBS (BioChrom, Berlin, Germany), at 5% CO2 and 37 °C in a humidified atmosphere.
(§2) Spheroids were cultured in round bottom ultra-low attachment 96-well plates (Corning). The optimal seeding densities were empirically determined (8000 cells/well for Colo-357 or 10,000 cells/well for Panc-1 spheroids. The cells were suspended in 2% Matrigel (Corning), centrifuged at 1000× g for 10 min and the spheroids were allowed to form in the incubator. Once the spheroids were formed, the treatments indicated together with 8.9 µM cycloheximide (as apoptosis sensitizer) were added and apoptosis was determined by live imaging in the Incucyte system in real time for approximately 60 h using Caspase-3/7 green reagent (Sartorius) as a reporter of apoptosis, which crosses the cell membrane and is cleaved by the activated Caspase-3/7, resulting in the fluorescent staining of nuclear DNA. Apoptosis on Panc-1 tumor spheroids is presented as integrated green fluorescence in the whole spheroid.

[2] = Turbidimetric solubility assay; type: physicochemical
Procedure: For the phosphate-buffered saline, we dissolved 2.38 g of disodium hydrogen phosphate dodecahydrate, 0.19 g of potassium dihydrogen phosphate, and 8.0 g of sodium chloride in water and diluted it to 1000 mL with the same solvent. Then we adjusted the pH to 7.4. The stock DMSO solutions of the compounds were prepared at concentrations of 50 mM, 20 mM, 10 mM, and 1 mM. The final solutions (500 µM, 200 µM, 100 µM, and 10 µM) were prepared by adding 2 µL of the stock DMSO solution to 198 µL of phosphate-buffered saline. The absorbance (area scan) was measured at 620 nm for sample volume of 200 µL and the appearance of the solutions was checked by visual inspection.

KV1.3 = KV1.3 (Homo sapiens, UniProt P22001); set-up: method as in PMID 32199306; settings: applied ex vivo to Kv1.3 expressing oocytes; read-out: IC50 KV1.3 (previous work); cited from earlier work
Chain of KV1.3 (P22001 whole entry): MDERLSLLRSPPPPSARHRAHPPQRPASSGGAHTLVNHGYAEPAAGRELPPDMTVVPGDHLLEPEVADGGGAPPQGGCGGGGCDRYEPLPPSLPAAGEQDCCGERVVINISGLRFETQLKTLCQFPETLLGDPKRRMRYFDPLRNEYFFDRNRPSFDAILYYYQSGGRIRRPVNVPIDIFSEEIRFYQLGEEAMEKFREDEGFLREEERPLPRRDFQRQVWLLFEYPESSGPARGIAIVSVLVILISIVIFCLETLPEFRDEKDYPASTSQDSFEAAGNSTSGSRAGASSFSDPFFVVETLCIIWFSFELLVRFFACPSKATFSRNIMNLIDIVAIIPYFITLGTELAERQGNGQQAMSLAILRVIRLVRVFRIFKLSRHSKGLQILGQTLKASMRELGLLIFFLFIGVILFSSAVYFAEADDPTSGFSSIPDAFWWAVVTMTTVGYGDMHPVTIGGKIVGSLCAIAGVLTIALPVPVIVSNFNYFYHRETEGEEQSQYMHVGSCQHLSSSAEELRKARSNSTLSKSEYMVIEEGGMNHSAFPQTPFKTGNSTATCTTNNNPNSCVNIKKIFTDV

KV1.2 = KV1.2 (Homo sapiens, UniProt P16389); assay: Selectivity, HiClamp Xenopus laevis heterologous expression system, KV1.2; type: cell-based; settings: 10 µM; HiClamp, oocytes
Chain of KV1.2 (P16389 whole entry): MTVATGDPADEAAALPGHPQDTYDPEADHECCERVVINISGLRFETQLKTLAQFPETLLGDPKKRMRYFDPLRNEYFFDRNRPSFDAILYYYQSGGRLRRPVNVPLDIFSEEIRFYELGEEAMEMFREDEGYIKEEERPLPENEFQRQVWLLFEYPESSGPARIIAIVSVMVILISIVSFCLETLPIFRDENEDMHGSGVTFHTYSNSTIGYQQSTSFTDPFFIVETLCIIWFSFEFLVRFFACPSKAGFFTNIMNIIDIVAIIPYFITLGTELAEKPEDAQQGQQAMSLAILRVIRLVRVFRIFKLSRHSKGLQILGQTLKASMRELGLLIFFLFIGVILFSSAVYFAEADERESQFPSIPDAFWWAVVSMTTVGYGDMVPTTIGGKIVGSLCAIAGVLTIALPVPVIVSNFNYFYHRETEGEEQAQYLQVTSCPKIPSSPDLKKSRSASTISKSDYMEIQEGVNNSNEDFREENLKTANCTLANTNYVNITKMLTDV
Procedure: (§3) Ion channels (Kv1.x, Kv2.1, Kv4.2, Kv10.1) were expressed in Xenopus laevis oocytes by linearization of the plasmids and subsequent in vitro transcription using a commercial T7 or SP6 mMESSAGE mMACHINE transcription kit (Ambion, Carlsbad, California, USA). Defolliculated Xenopus oocytes were then injected with 20–50 nL of the cRNA at a concentration of 1 ng/nL using a micro-injector (Drummond Scientific1, Broomall, PA, USA). The oocytes were incubated in a solution containing (in mM): NaCl, 96; KCl, 2; CaCl2, 1.8; MgCl2, 2 and HEPES, 5 (pH 7.5), supplemented with 50 mg/L gentamycin sulfate and 90 mg/L theophylline. After ex vivo translation, the ion channels were correctly inserted in the cell membrane of the oocytes.
(§4) Two-electrode voltage-clamp recordings were performed at room temperature (18–22 °C) using a Geneclamp 500 amplifier (Molecular Devices, San Jose, CA, USA) and pClamp data acquisition (Axon Instruments, Union City, CA, USA) and using an integrated digital TEVC amplifier controlled by HiClamp, an automated Voltage-Clamp Screening System (Multi Channel Systems MCS GmbH, Reutlingen, Germany). Whole-cell currents from oocytes were recorded 1–4 days after injection. The bath solution composition was ND96 (in mM): NaCl, 96; KCl, 2; CaCl2, 1.8; MgCl2, 2 and HEPES, 5 (pH 7.5). Voltage and current electrodes were filled with a 3 M solution of KCl in H2O. Resistances of both electrodes were kept between 0.5 and 1.5 MΩ. The elicited Kv1.x, Kv2.1, Kv4.2 and Kv10.1 currents were filtered at 0.5 kHz and sampled at 2 kHz using a four-pole low-pass Bessel filter. Leak subtraction was performed using a P/4 protocol.
(§5) For the electrophysiological analysis of the compounds, a number of protocols were applied from a holding potential of −90 mV. Currents for Kv1.x, Kv2.1, Kv4.2 and Kv10.1 were evoked by 1 s depolarizing pulses either to 0 mV or to a range of voltage steps between −80 mV and +40 mV. For the analysis of the data, only the inhibition at the 0 mV step was used. The concentration dependency of all compounds was assessed by measuring the current inhibition in the presence of increasing compound concentrations. […] From this stock solution, adequate dilutions with a maximum of 0.5% DMSO were made for testing.
(§6) All electrophysiological data (Figure S1) are presented as means ± S.E.M of n ≥ three independent experiments unless otherwise indicated. All data were analyzed using pClamp Clampfit 10.4 (Molecular Devices, Downingtown, PA, USA), OriginPro 9 (Originlab, Northampton, MA, USA), GraphPad Prism 8 software (GraphPad Software, Inc., San Diego, CA, USA) and DataMining (Multi Channel Systems MCS GmbH, Reutlingen, Germany). The Dunnett test and one-way ANOVA were performed to calculate the significance of the induced inhibition compared to the control.

KV10.1 = KV10.1 (Homo sapiens, UniProt O95259); assay: Selectivity, HiClamp Xenopus laevis heterologous expression system, KV10.1; type: cell-based; settings: 10 µM; HiClamp, oocytes
Chain of KV10.1 (O95259 whole entry): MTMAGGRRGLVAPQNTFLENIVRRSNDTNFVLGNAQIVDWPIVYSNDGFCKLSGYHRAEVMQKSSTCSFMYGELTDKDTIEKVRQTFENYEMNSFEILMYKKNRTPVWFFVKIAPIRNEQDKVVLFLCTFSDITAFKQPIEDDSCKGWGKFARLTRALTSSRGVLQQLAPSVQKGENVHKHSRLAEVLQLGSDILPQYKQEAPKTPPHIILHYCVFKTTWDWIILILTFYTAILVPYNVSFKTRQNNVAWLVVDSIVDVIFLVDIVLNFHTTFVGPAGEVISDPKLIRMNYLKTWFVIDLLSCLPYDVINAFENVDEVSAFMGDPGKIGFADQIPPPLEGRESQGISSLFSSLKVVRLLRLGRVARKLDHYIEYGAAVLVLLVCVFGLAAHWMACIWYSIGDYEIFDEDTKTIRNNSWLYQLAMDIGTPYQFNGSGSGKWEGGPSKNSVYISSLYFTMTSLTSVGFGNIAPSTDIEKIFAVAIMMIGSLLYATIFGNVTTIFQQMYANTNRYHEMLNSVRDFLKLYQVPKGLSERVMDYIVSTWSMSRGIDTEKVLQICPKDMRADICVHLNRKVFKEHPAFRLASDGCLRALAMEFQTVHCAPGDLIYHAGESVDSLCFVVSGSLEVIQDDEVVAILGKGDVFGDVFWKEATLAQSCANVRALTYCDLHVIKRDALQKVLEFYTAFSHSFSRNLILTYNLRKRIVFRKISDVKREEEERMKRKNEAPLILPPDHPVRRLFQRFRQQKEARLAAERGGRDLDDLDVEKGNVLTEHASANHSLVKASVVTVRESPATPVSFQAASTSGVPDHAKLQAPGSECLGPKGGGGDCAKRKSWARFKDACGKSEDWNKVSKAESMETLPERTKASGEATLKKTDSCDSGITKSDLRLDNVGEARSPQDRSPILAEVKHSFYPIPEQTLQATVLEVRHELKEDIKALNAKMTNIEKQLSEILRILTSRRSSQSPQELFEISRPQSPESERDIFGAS
Procedure: as §3, with “After ex vivo translation, the ion channels were correctly inserted in the cell membrane of the oocytes.” left out
(§7) Two-electrode voltage-clamp recordings were performed at room temperature (18–22 °C) using a Geneclamp 500 amplifier (Molecular Devices, San Jose, CA, USA) and pClamp data acquisition (Axon Instruments, Union City, CA, USA) and using an integrated digital TEVC amplifier controlled by HiClamp, an automated Voltage-Clamp Screening System (Multi Channel Systems MCS GmbH, Reutlingen, Germany). Whole-cell currents from oocytes were recorded 1–4 days after injection. […]
(§8) For the electrophysiological analysis of the compounds, a number of protocols were applied from a holding potential of −90 mV. […] The concentration dependency of all compounds was assessed by measuring the current inhibition in the presence of increasing compound concentrations. […]

KV1.6 = KV1.6 (Homo sapiens, UniProt P17658); assay: Selectivity, HiClamp Xenopus laevis heterologous expression system, KV1.6; type: cell-based; settings: 10 µM; HiClamp, oocytes
Chain of KV1.6 (P17658 whole entry): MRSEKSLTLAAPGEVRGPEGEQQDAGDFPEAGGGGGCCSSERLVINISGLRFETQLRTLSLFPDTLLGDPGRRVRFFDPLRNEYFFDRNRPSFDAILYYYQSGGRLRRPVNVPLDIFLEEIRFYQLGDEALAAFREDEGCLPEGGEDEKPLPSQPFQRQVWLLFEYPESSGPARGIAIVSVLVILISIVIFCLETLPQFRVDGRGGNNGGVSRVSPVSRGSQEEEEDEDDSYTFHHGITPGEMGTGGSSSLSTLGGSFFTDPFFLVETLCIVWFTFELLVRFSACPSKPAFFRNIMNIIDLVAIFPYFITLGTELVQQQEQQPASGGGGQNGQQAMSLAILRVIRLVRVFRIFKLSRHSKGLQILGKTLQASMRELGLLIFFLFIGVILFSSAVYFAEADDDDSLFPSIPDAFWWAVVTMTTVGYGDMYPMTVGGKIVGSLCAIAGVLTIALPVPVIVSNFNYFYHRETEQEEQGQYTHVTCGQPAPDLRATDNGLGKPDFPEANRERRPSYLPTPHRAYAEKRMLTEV
Procedure: as §3, §4, §5, §6

KV1.1 = KV1.1 (Rattus norvegicus, UniProt P10499); assay: Selectivity, HiClamp Xenopus laevis heterologous expression system, KV1.1; type: cell-based; settings: 10 µM; HiClamp, oocytes
Chain of KV1.1 (P10499 whole entry): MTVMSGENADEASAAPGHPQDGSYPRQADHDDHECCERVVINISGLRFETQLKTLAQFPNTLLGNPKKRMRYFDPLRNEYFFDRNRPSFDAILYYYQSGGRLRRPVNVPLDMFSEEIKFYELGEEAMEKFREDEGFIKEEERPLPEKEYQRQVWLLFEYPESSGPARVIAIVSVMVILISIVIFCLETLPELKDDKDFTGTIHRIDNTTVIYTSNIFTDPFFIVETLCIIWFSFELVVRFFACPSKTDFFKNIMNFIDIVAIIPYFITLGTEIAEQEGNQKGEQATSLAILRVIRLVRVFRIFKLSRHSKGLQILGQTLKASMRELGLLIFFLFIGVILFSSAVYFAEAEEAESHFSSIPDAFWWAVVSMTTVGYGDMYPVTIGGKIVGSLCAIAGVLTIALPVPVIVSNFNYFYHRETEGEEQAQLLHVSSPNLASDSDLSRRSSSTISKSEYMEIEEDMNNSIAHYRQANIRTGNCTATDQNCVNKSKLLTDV
Procedure: as §3, §4, §5, §6

KV4.2 = KV4.2 (Homo sapiens, UniProt Q9NZV8); assay: Selectivity, HiClamp Xenopus laevis heterologous expression system, KV4.2; type: cell-based; settings: 10 µM, oocytes
Chain of KV4.2 (Q9NZV8 whole entry): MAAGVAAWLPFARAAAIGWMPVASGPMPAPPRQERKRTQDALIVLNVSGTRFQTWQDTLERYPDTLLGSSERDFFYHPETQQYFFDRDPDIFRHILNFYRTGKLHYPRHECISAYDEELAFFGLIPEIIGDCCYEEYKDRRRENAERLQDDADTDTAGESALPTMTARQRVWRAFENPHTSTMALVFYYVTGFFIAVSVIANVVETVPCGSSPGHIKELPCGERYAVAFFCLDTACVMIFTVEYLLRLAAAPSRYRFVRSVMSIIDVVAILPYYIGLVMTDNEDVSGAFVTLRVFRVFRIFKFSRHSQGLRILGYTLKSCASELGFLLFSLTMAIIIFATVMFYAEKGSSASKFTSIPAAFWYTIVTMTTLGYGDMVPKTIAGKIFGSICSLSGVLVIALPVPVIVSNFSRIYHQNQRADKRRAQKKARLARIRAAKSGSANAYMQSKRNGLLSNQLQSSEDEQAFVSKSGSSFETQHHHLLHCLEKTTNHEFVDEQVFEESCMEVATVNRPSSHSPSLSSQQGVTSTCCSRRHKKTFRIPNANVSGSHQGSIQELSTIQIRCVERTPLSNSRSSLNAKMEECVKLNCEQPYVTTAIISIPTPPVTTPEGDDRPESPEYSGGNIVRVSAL
Procedure: as §3, with “After ex vivo translation, the ion channels were correctly inserted in the cell membrane of the oocytes.” left out
as §7, §8

KV1.4 = KV1.4 (Homo sapiens, UniProt P22459); assay: Selectivity, HiClamp Xenopus laevis heterologous expression system, KV1.4; type: cell-based; settings: 10 µM; HiClamp, oocytes
Chain of KV1.4 (P22459 whole entry): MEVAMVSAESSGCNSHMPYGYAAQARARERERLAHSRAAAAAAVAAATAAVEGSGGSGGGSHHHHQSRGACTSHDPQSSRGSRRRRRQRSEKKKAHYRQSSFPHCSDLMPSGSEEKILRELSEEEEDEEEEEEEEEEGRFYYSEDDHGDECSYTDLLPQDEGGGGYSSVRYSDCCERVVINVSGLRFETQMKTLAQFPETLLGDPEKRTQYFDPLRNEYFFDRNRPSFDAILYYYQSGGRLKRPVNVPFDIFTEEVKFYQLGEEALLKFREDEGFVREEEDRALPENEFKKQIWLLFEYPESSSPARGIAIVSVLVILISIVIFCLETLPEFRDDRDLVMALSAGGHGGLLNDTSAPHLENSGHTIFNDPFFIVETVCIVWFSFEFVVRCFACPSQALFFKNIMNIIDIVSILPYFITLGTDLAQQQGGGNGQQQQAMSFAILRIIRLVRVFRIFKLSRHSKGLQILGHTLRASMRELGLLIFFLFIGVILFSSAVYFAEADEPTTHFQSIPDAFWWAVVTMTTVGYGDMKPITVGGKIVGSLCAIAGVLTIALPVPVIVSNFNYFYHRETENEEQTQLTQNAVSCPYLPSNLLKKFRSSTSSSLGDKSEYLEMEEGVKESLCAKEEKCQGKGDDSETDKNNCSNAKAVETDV
Procedure: as §3
as §4, with “Resistances of both electrodes were kept between 0.5 and 1.5 MΩ. The elicited Kv1.x, Kv2.1, Kv4.2 and Kv10.1 currents were filtered at 0.5 kHz and sampled at 2 kHz using a four-pole low-pass Bessel filter. Leak subtraction was performed using a P/4 protocol.” left out
as §8
(§9) All electrophysiological data (Figure S1) are presented as means ± S.E.M of n ≥ three independent experiments unless otherwise indicated. All data were analyzed using pClamp Clampfit 10.4 (Molecular Devices, Downingtown, PA, USA), OriginPro 9 (Originlab, Northampton, MA, USA), GraphPad Prism 8 software (GraphPad Software, Inc., San Diego, CA, USA) and DataMining (Multi Channel Systems MCS GmbH, Reutlingen, Germany). […]

[3] = system: cancer cells (human SAOS2, mouse B16F10 melanoma, and human B-CLL); settings: PAP-1 20 µM, clofazimine 1 or 10 µM, with MDRi cyclosporine H (4 µM) and probenecid (100 µM); cited from earlier work
Panc-1 tumor spheroids = assay: Apoptosis (caspase 3/7 activity) in Panc-1 tumor spheroids; type: cell-based; settings: with 8.9 µM cycloheximide
Procedure: as §1, §2

KV2.1 = molecular target: T1, KV2.1 (Homo sapiens, UniProt Q14721); assay: Selectivity, HiClamp Xenopus laevis heterologous expression system, KV2.1; type: cell-based; settings: 10 µM; HiClamp, oocytes
T1 sequence (Q14721 1-858): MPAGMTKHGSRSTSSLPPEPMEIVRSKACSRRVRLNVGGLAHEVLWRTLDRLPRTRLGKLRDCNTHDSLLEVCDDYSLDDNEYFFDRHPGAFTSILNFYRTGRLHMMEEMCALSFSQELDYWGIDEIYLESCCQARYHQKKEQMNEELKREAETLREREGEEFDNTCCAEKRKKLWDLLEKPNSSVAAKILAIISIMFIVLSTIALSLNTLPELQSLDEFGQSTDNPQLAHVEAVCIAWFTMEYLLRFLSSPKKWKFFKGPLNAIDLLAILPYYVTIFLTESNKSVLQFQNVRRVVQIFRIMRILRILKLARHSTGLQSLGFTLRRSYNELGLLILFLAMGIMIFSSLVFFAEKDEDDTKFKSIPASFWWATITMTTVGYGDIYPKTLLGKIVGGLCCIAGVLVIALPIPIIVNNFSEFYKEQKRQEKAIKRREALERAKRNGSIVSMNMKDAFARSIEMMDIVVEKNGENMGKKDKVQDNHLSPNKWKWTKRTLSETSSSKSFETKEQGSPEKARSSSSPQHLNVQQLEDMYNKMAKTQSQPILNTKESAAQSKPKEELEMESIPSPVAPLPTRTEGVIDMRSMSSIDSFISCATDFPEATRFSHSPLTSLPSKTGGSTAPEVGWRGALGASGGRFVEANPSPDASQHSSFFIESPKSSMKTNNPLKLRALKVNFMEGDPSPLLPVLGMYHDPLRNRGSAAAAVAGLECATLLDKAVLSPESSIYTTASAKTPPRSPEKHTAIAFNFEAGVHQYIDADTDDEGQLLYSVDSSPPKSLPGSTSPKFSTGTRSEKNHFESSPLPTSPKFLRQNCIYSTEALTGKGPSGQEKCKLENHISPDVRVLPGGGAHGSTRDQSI
Procedure: as §3
as §4, with “Resistances of both electrodes were kept between 0.5 and 1.5 MΩ. The elicited Kv1.x, Kv2.1, Kv4.2 and Kv10.1 currents were filtered at 0.5 kHz and sampled at 2 kHz using a four-pole low-pass Bessel filter. Leak subtraction was performed using a P/4 protocol.” left out
as §8, §9

KV1.5 = KV1.5 (Homo sapiens, UniProt P22460); assay: Selectivity, HiClamp Xenopus laevis heterologous expression system, KV1.5; type: cell-based; settings: 10 µM; HiClamp, oocytes
Chain of KV1.5 (P22460 whole entry): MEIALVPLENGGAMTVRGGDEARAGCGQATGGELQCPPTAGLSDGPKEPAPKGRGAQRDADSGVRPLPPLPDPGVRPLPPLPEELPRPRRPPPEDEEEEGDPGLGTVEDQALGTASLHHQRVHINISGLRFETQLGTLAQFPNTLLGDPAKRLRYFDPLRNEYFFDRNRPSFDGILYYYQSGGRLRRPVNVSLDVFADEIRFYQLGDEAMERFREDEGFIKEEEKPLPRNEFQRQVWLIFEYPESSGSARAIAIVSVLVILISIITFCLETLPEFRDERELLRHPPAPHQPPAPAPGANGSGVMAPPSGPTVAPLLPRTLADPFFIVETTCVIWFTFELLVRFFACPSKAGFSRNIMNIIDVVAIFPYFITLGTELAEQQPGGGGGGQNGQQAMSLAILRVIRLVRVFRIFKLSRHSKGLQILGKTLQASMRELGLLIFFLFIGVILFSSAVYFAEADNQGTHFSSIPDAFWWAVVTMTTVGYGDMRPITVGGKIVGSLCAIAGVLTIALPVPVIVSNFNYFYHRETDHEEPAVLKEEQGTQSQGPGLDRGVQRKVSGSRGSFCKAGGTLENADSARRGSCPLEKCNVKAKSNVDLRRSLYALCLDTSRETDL
Procedure: as §3, §4, §5, §6

[4] = system: KV1.1, KV1.2, KV1.5 and KV3.1; set-up: method as in PMID 19104661; settings: cited from earlier work
Panc-1 cell line = system: Panc-1 cell line; set-up: method as in PMID 29034212; settings: Panc-1; 20 µM; cited from earlier work
[5] = system: orthotopic PDAC xenotransplantation model; settings: orthotopic PDAC xenotransplantation model in SCID beige mice; cited from earlier work
Colo-357 = system: Colo-357; set-up: method as in PMID 29034212; settings: read-out: EC50 cell death; cited from earlier work
[6] = system: pancreatic ductal adenocarcinoma (PDAC) cell lines; settings: cited from earlier work

## COc1ccccc1C(=O)NCC1(c2ccsc2)CCCC1 [Compound 4]
[1]
  Effect on other KV1.x family channels or more distantly related channels: did not affect
Colo-357 tumor spheroids
  Induction of apoptosis in Colo-357 spheroids: significant induction of apoptosis; also recorded: induced a significant amount of apoptosis
[2]; 10 µM in PBS with 1 % final DMSO
  absorbance at 620 nm: 0
[2]; 100 µM in PBS with 1 % final DMSO
  absorbance at 620 nm: 0,035
[2]; 200 µM in PBS with 1 % final DMSO
  absorbance at 620 nm: 0,127
[2]; 500 µM in PBS with 1 % final DMSO
  absorbance at 620 nm: 0,189

## COc1ccccc1C(=O)NCC1(c2ccccc2)CCOCC1 [Compound 5]
KV1.3
  IC50: 920 nM

## O=c1ccc2c(OCCCCOc3ccccc3)c3ccoc3cc2o1 [PAP-1 (1), PAP-1, reference compound]
KV1.2
  Effect on KV1.2 channel: no significant effects
KV10.1
  Effect on KV10.1 channel: no significant effects
KV1.6
  Effect on KV1.6 channel: no significant effects
KV1.1
  Effect on KV1.1 channel: no significant effects
KV4.2
  Effect on KV4.2 channel: no significant effects
KV1.4
  Effect on KV1.4 channel: no significant effects
[3]
  Induction of apoptosis in cancer cells: induced mild apoptosis
Panc-1 tumor spheroids
  Induction of apoptosis in Panc-1 spheroids: did and induce significant apoptosis
KV2.1
  Effect on KV2.1 channel: no significant effects
KV1.5
  Effect on KV1.5 channel: no significant effects

## CC(C)/N=c1\cc2n(-c3ccc(Cl)cc3)c3ccccc3nc-2cc1Nc1ccc(Cl)cc1 [clofazimine (3), clofazimine]
[4]
  Potency on KV1.3 relative to KV1.1, KV1.2, KV1.5 and KV3.1: tenfold higher potency
Panc-1 cell line
  cell death: less than 30%
[5]
  Primary tumor weight: significantly reduced
Colo-357
  EC50: 1500 nM
[3]
  Induction of apoptosis in cancer cells: induced mild apoptosis
[6]
  EC50 apoptosis in PDAC cell lines: micromolar range
  Induction of apoptosis in PDAC cell lines: induced significant apoptosis
